# Results reported in ChEMBL document CHEMBL1201862, “PubChem BioAssay data set” (2004).
#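 48-hour exposure; five concentrations; linearly interpolated endpoints. At the GI50, growth is halved.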 The source made the active and inactive calls. No stated cut-off is given here; in the data, active = GI50 up to about 1.1 µM and inactive = higher.
# Tests used:
# Assay in all cases: DTP human tumour cell line panel, 48 h
# 786-0 = tested on: 786-0
# A498 = tested on: A498
# A549 = tested on: A549
# ACHN = tested on: ACHN
# BT-549 = tested on: BT-549
# CAKI-1 = tested on: CAKI-1
# CCRF-CEM = tested on: CCRF-CEM
# COLO 205 = tested on: COLO 205
# DU-145 = tested on: DU-145
# EKVX = tested on: EKVX
# HCC 2998 = tested on: HCC 2998
# HCT-116 = tested on: HCT-116
# HCT-15 = tested on: HCT-15
# HL-60 = tested on: HL-60
# HOP-62 = tested on: HOP-62
# HOP-92 = tested on: HOP-92
# HT-29 = tested on: HT-29
# Hs-578T = tested on: Hs-578T
# IGROV-1 = tested on: IGROV-1
# K562 = tested on: K562
# KM12 = tested on: KM12
# LOX IMVI = tested on: LOX IMVI
# M14 = tested on: M14
# MCF7 = tested on: MCF7
# MDA-MB-231 = tested on: MDA-MB-231
# MDA-MB-435 = tested on: MDA-MB-435
# MDA-N = tested on: MDA-N
# MOLT-4 = tested on: MOLT-4
# Malme-3M = tested on: Malme-3M
# NCI-H226 = tested on: NCI-H226
# NCI-H23 = tested on: NCI-H23
# NCI-H460 = tested on: NCI-H460
# NCI-H522 = tested on: NCI-H522
# NCI/ADR-RES = tested on: NCI/ADR-RES
# OVCAR-3 = tested on: OVCAR-3
# OVCAR-4 = tested on: OVCAR-4
# OVCAR-5 = tested on: OVCAR-5
# OVCAR-8 = tested on: OVCAR-8
# PC-3 = tested on: PC-3
# RPMI-8226 = tested on: RPMI-8226
# RXF 393 = tested on: RXF 393
# SF-268 = tested on: SF-268
# SF-295 = tested on: SF-295
# SF-539 = tested on: SF-539
# SK-MEL-28 = tested on: SK-MEL-28
# SK-MEL-2 = tested on: SK-MEL-2
# SK-MEL-5 = tested on: SK-MEL-5
# SK-OV-3 = tested on: SK-OV-3
# SN12C = tested on: SN12C
# SNB-19 = tested on: SNB-19
# SNB-75 = tested on: SNB-75
# SR = tested on: SR
# SW-620 = tested on: SW-620
# T47D = tested on: T47D
# TK-10 = tested on: TK-10
# U-251 = tested on: U-251
# UACC-257 = tested on: UACC-257
# UACC-62 = tested on: UACC-62
# UO-31 = tested on: UO-31
smiles,measurement,setting,value
CC(C)C[C@H](NC(=O)[C@H](Cc1ccc(F)cc1)NC(=O)c1ccccn1)B(O)O,GI50,786-0,< 0.01 µM (active)
same,GI50,A498,< 0.01 µM (active)
same,GI50,A549,< 0.01 µM (active)
same,GI50,ACHN,< 0.01 µM (active)
same,GI50,BT-549,< 0.01 µM (active)
same,GI50,CAKI-1,< 0.01 µM (active)
same,GI50,CCRF-CEM,< 10 nM (active)
same,GI50,COLO 205,< 0.01 µM (active)
same,GI50,DU-145,< 0.01 µM (active)
same,GI50,EKVX,< 0.01 µM (active)
same,GI50,HCC 2998,< 0.01 µM (active)
same,GI50,HCT-116,< 0.01 µM (active)
same,GI50,HCT-15,< 10 nM
same,GI50,HL-60,< 0.01 µM (active)
same,GI50,HOP-62,< 0.01 µM (active)
same,GI50,HOP-92,< 0.01 µM (active)
same,GI50,HT-29,< 0.01 µM (active)
same,GI50,Hs-578T,< 0.01 µM (active)
same,GI50,IGROV-1,< 0.01 µM (active)
same,GI50,K562,< 0.01 µM (active)
same,GI50,KM12,< 0.01 µM (active)
same,GI50,LOX IMVI,< 0.01 µM (active)
same,GI50,M14,< 0.01 µM (active)
same,GI50,MCF7,< 0.01 µM (active)
same,GI50,MDA-MB-231,< 0.01 µM (active)
same,GI50,MDA-MB-435,< 0.01 µM (active)
same,GI50,MDA-N,< 0.01 µM (active)
same,GI50,MOLT-4,< 0.01 µM (active)
same,GI50,Malme-3M,< 0.01 µM (active)
same,GI50,NCI-H226,< 0.01 µM (active)
same,GI50,NCI-H23,< 0.01 µM (active)
same,GI50,NCI-H460,< 10 nM (active)
same,GI50,NCI-H522,< 0.01 µM (active)
same,GI50,NCI/ADR-RES,< 0.01 µM (active)
same,GI50,OVCAR-3,< 0.01 µM (active)
same,GI50,OVCAR-4,< 0.01 µM (active)
same,GI50,OVCAR-5,< 0.01 µM (active)
same,GI50,OVCAR-8,< 0.01 µM (active)
same,GI50,PC-3,< 0.01 µM (active)
same,GI50,RPMI-8226,< 0.01 µM (active)
same,GI50,RXF 393,< 0.01 µM (active)
same,GI50,SF-268,< 0.01 µM (active)
same,GI50,SF-295,< 0.01 µM (active)
same,GI50,SF-539,< 0.01 µM (active)
same,GI50,SK-MEL-28,< 0.01 µM (active)
same,GI50,SK-MEL-2,< 0.01 µM (active)
same,GI50,SK-MEL-5,< 0.01 µM (active)
same,GI50,SK-OV-3,< 0.0148 µM (active)
same,GI50,SN12C,< 0.01 µM (active)
same,GI50,SNB-19,< 0.01 µM (active)
same,GI50,SNB-75,< 0.01 µM (active)
same,GI50,SR,< 10 nM (active)
same,GI50,SW-620,< 0.01 µM (active)
same,GI50,T47D,< 0.01 µM (active)
same,GI50,TK-10,< 0.01 µM (active)
same,GI50,U-251,< 0.01 µM (active)
same,GI50,UACC-257,< 0.01 µM (active)
same,GI50,UACC-62,< 0.01 µM (active)
same,GI50,UO-31,< 0.01 µM (active)
C/C(=N/NC(=S)N1CCCCCC1)c1ccccc1O,GI50,786-0,1.89 µM (inactive)
same,GI50,A498,23.8 µM (inactive)
same,GI50,A549,6.05 µM (inactive)
same,GI50,ACHN,2.65 µM (inactive)
same,GI50,BT-549,8.97 µM (inactive)
same,GI50,CAKI-1,8.05 µM (inactive)
same,GI50,CCRF-CEM,792 nM (active)
same,GI50,COLO 205,7.98 µM (inactive)
same,GI50,DU-145,4.72 µM (inactive)
same,GI50,EKVX,14.9 µM (inactive)
same,GI50,HCC 2998,7.4 µM (inactive)
same,GI50,HCT-116,3.11 µM (inactive)
same,GI50,HCT-15,1260 nM
same,GI50,HL-60,2.25 µM (inactive)
same,GI50,HOP-62,1.99 µM (inactive)
same,GI50,HOP-92,50.2 µM (inactive)
same,GI50,HT-29,7.73 µM (inactive)
same,GI50,Hs-578T,> 100 µM (inactive)
same,GI50,IGROV-1,3.72 µM (inactive)
same,GI50,K562,3.31 µM (inactive)
same,GI50,KM12,3.67 µM (inactive)
same,GI50,LOX IMVI,2.07 µM (inactive)
same,GI50,M14,1.49 µM (inactive)
same,GI50,MCF7,3.31 µM (inactive)
same,GI50,MDA-MB-231,29.9 µM (inactive)
same,GI50,MDA-MB-435,5.82 µM (inactive)
same,GI50,MDA-N,13.6 µM (inactive)
same,GI50,MOLT-4,2.26 µM (inactive)
same,GI50,Malme-3M,2.59 µM (inactive)
same,GI50,NCI-H226,> 22 µM (inactive)
same,GI50,NCI-H23,14 µM (inactive)
same,GI50,NCI-H460,650 nM (active)
same,GI50,NCI-H522,1.49 µM (inactive)
same,GI50,NCI/ADR-RES,1.69 µM (inactive)
same,GI50,OVCAR-3,1.38 µM (inactive)
same,GI50,OVCAR-4,6.98 µM (inactive)
same,GI50,OVCAR-5,12.7 µM (inactive)
same,GI50,OVCAR-8,2.81 µM (inactive)
same,GI50,PC-3,6.7 µM (inactive)
same,GI50,RPMI-8226,2.48 µM (inactive)
same,GI50,RXF 393,51.5 µM (inactive)
same,GI50,SF-268,3.03 µM (inactive)
same,GI50,SF-295,4.8 µM (inactive)
same,GI50,SF-539,3.86 µM (inactive)
same,GI50,SK-MEL-28,8.36 µM (inactive)
same,GI50,SK-MEL-2,3.29 µM (inactive)
same,GI50,SK-MEL-5,4.05 µM (inactive)
same,GI50,SK-OV-3,12.7 µM (inactive)
same,GI50,SN12C,4.63 µM (inactive)
same,GI50,SNB-19,42.2 µM (inactive)
same,GI50,SNB-75,16.4 µM (inactive)
same,GI50,SR,492 nM (active)
same,GI50,SW-620,4.97 µM (inactive)
same,GI50,T47D,7.6 µM (inactive)
same,GI50,TK-10,3.58 µM (inactive)
same,GI50,U-251,1.87 µM (inactive)
same,GI50,UACC-257,4.6 µM (inactive)
same,GI50,UACC-62,3.05 µM (inactive)
same,GI50,UO-31,2.62 µM (inactive)
Cc1ncc(CO)c(/C=N/CCCCCC/N=C/c2c(CO)cnc(C)c2[O-])c1[O-].[Mg+2],GI50,786-0,> 100 µM (inactive)
same,GI50,A498,> 100 µM (inactive)
same,GI50,A549,> 100 µM (inactive)
same,GI50,ACHN,> 100 µM (inactive)
same,GI50,BT-549,> 100 µM (inactive)
same,GI50,CAKI-1,> 100 µM (inactive)
same,GI50,CCRF-CEM,36200 nM (inactive)
same,GI50,COLO 205,> 100 µM (inactive)
same,GI50,DU-145,> 100 µM (inactive)
same,GI50,EKVX,> 100 µM (inactive)
same,GI50,HCC 2998,> 100 µM (inactive)
same,GI50,HCT-116,> 100 µM (inactive)
same,GI50,HCT-15,> 100000 nM
same,GI50,HL-60,> 100 µM (inactive)
same,GI50,HOP-62,> 100 µM (inactive)
same,GI50,HOP-92,> 44.6 µM (inactive)
same,GI50,HT-29,> 100 µM (inactive)
same,GI50,Hs-578T,> 100 µM (inactive)
same,GI50,IGROV-1,> 100 µM (inactive)
same,GI50,K562,> 100 µM (inactive)
same,GI50,KM12,> 100 µM (inactive)
same,GI50,LOX IMVI,> 100 µM (inactive)
same,GI50,M14,> 100 µM (inactive)
same,GI50,MCF7,> 60.1 µM (inactive)
same,GI50,MDA-MB-231,> 100 µM (inactive)
same,GI50,MDA-MB-435,> 100 µM (inactive)
same,GI50,MDA-N,> 100 µM (inactive)
same,GI50,MOLT-4,> 100 µM (inactive)
same,GI50,Malme-3M,> 100 µM (inactive)
same,GI50,NCI-H226,> 100 µM (inactive)
same,GI50,NCI-H23,> 100 µM (inactive)
same,GI50,NCI-H460,> 100000 nM (inactive)
same,GI50,NCI-H522,> 100 µM (inactive)
same,GI50,NCI/ADR-RES,> 100 µM (inactive)
same,GI50,OVCAR-3,> 100 µM (inactive)
same,GI50,OVCAR-4,> 100 µM (inactive)
same,GI50,OVCAR-5,> 100 µM (inactive)
same,GI50,OVCAR-8,> 67.9 µM (inactive)
same,GI50,PC-3,> 100 µM (inactive)
same,GI50,RPMI-8226,> 100 µM (inactive)
same,GI50,RXF 393,> 100 µM (inactive)
same,GI50,SF-268,> 100 µM (inactive)
same,GI50,SF-295,> 100 µM (inactive)
same,GI50,SF-539,> 100 µM (inactive)
same,GI50,SK-MEL-28,> 100 µM (inactive)
same,GI50,SK-MEL-2,> 100 µM (inactive)
same,GI50,SK-MEL-5,> 100 µM (inactive)
same,GI50,SK-OV-3,> 100 µM (inactive)
same,GI50,SN12C,> 100 µM (inactive)
same,GI50,SNB-19,> 100 µM (inactive)
same,GI50,SNB-75,99.5 µM (inactive)
same,GI50,SR,92700 nM (inactive)
same,GI50,SW-620,> 100 µM (inactive)
same,GI50,T47D,> 100 µM (inactive)
same,GI50,TK-10,> 100 µM (inactive)
same,GI50,U-251,> 100 µM (inactive)
same,GI50,UACC-257,> 100 µM (inactive)
same,GI50,UACC-62,> 100 µM (inactive)
same,GI50,UO-31,> 100 µM (inactive)
